In patent US20250388574A1, “HETEROCYCLIC COMPOUNDS AS TRIGGERING RECEPTOR EXPRESSED ON MYELOID CELLS 2 AGONISTS AND METHODS OF USE” (AMGEN INC., priority 2020, published 2025) one finds Emax and EC50 data, which are given here for 30 compounds.

The experiment concerns the target hTREM2 (Homo sapiens, UniProt Q9NZC2). The experiment can be described thus: Phospho-Syk AlphaScreen/AlphaLISA assay in TREM2 and DAP12 overexpressing HEK293 cells (Example A1). In kind it is cell-based. On the set-up: expressed in transfected cells. Conditions: HEK293 cells; for EC50: read-out: hTREM2 EC50. The protocol:
Pharmacological measurements of TREM2 signaling through DAP12 were made with TREM2 and DAP12 overexpressing HEK293 cells stable cell lines that had been single-cell cloned (“TREM2/DAP12-HEK”). The readout of the TREM2 signaling utilized Perkin Elmer AlphaScreen/AlphaLISA technology monitoring the phosphorylation levels of the Syk kinase. TREM2/DAP12-HEK cell lines were cultured in DMEM-F12 (Corning 10-092-CM) supplemented with 1× Penicillin/Streptomycin (Corning 30-002-CI), 1× GlutaMAX (Gibco 35050-061), and 10% Fetal Bovine Serum (Life Technologies 10099) referred to as “HEK Culture Medium”. Suspensions of TREM2/DAP12-HEK cells were prepared in HEK Culture Medium and dispensed into 384-well poly-D-lysine coated microplates (Corning 354661) at a density of 20,000 cells/well using a Multidrop Combi peristaltic microplate dispenser (Thermo), 25 uL volume of cell suspension/well. Plates containing cells were then incubated for 20 hours in a humidified cell culture incubator at 37° C. with 5% CO2 (Thermo). […] Assay Buffer contained diluted test articles (in 1% final DMSO concentration for compounds) or 100 nM anti-human/mouse TREM2 antibody (R&D Systems MAB17291) as a positive control, 100 nM or rat IgG2B isotype Ab as a negative control (R&D Systems MAB0061). Incubated the plates with test articles and controls for 45 minutes at room temperature and then aspirated/removed the medium from each well of the plates. Used a Multidrop Combi peristaltic liquid handler (Thermo) to dispense 15 uL/well of “Cell Lysis Immunoassay Buffer”. The Cell Lysis Immunoassay Buffer contained M-PER Mammalian Protein Extraction Reagent (Pierce/ThermoFisher 78505), 1× Halt Phosphatase Inhibitor Cocktail (ThermoFisher #78427), 0.1875 nM anti-phospho-Syk ([…]/526) ([…]) rabbit mAb (Cell Signaling Technologies catalog #2710), and 1.5 nM biotinylated Mouse anti-human Syk (4D10) antibody (BD Biosciences, catalog #624008). Incubated plates for 1 hour at room temperature after the addition of the Cell Lysis Immunoassay Buffer. Used the Multidrop Combi liquid handler to dispense 15 μL of AlphaScreen Acceptor Bead Solution containing 7.5 μg/mL anti-rabbit IgG (Fc specific) AlphaLISA Acceptor Beads (Perkin Elmer A[…]) in 1× Immunoassay buffer (Perkin Elmer A[…]) to each well of the microplates. Incubated plates for 2 hours at room temperature. Following the incubation with the AlphaLISA Acceptor Bead Solution, used a Multidrop Combi liquid handler (Thermo) to dispense 15 μL of AlphaScreen Donor Bead Solution containing 30 μg/mL of AlphaScreen Streptavidin Donor beads (Perkin Elmer 6760002B) in 1× Immunoassay buffer (Perkin Elmer A[…]) to each well of the microplates. Incubated microplates for 2 hours protected from light sources as the AlphaScreen reagents are light sensitive. Once the final incubation was completed, acquired AlphaScreen signal from the donor and acceptor beads using an Envision high throughput multi-modal microplate reader (Perkin Elmer) calibrated to the plate type with the AlphaScreen mirror and filter-set in 384-well mode, 680 nanometer excitation wavelength. The total measurement time per well was 550 milliseconds with a 180 millisecond excitation time. After reading the AlphaScreen signal for each well of the microplates, on a plate-by-plate basis, each raw test article well value (x) was normalized to a Percent of Control (“POC”) value using the following formula: […] Each plate contained 12 of each type of control wells that were used to generate the mean values. For concentration response curve analysis with test articles tested at various concentrations, the % of activation values were analyzed with 4 Parameter Logistic or Sigmoidal Dose-Response Models using GeneData Screener (GeneData, AG) or GraphPad Prism 7 (Graphpad Software, Inc.). […] This assay may be used to test any of the compounds described herein to assess and characterize a compound's ability to act as an agonist of TREM2.

Structures are written as SMILES. Where only a bound is given, the exact number is not on record here.

Chain of hTREM2 (Q9NZC2 19-230): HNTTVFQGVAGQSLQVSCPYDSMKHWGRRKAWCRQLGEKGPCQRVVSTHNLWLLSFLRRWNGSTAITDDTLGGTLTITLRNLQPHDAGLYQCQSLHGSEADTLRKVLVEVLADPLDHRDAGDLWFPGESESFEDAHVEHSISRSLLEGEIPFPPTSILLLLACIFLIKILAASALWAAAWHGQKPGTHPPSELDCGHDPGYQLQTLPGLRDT
Chain of hTREM2 (O43914 22-113 partner): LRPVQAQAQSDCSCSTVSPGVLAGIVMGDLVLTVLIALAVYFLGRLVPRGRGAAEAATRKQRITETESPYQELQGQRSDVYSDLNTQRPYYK

For the compound `Cc1nc2cc(N3CCO[C@H](c4ccsc4)C3)nc(-c3ccc(Cl)cc3F)c2c(=O)n1C` (single isomer, unassigned) [Example 54], the Emax result is listed as “++++ (Emax>300)” and the concentration giving a half-maximal response (EC50) – broadly, the concentration needed to bring the measured effect to its halfway point – is 0.05 to 0.5 µM.

`Cc1nc2cc(N3CCO[C@@H](c4ccsc4)C3)nc(-c3ccc(Cl)cc3F)c2c(=O)n1C` (single isomer, unassigned) [Example 55]: the Emax entry is “++++ (Emax>300)” and the EC50 lay within 0.5 to 3 µM.

Regarding `Cc1nc([C@H]2CN(c3cc4nc(C)n(C)c(=O)c4c(-c4ccc(Cl)cc4F)n3)CCO2)no1` (single isomer, unassigned) [Example 56], the Emax entry is “+++ (Emax>200 and ≤300)”; the EC50 was 3 to 100 µM.

Regarding `Cc1nc([C@@H]2CN(c3cc4nc(C)n(C)c(=O)c4c(-c4ccc(Cl)cc4F)n3)CCO2)no1` (single isomer, unassigned) [Example 57], the Emax result is “+++ (Emax>200 and ≤300)”; the EC50 is 0.5 to 3 µM.

For `Cc1nnc([C@@H]2CN(c3cc4nc(C)n(C)c(=O)c4c(-c4ccc(Cl)cc4F)n3)CCO2)o1` (single isomer, unassigned) [Example 58], the Emax result was “+++ (Emax>200 and ≤300)”; the EC50 lay within 0.5 to 3 µM.

For the compound `Cc1nnc([C@H]2CN(c3cc4nc(C)n(C)c(=O)c4c(-c4ccc(Cl)cc4F)n3)CCO2)o1` (single isomer, unassigned) [Example 59], the Emax result is “+++ (Emax>200 and ≤300)”; the EC50 was 0.05 to 0.5 µM.

As for `Cc1ncc([C@@H]2CN(c3cc4nc(C)n(C)c(=O)c4c(-c4ccc(Cl)cc4F)n3)CCO2)cn1` (single isomer, unassigned) [Example 64], the Emax entry is “++++ (Emax>300)” and the half-maximal effective concentration (EC50) is 0.05 to 0.5 µM.

Regarding `Cc1ncc([C@H]2CN(c3cc4nc(C)n(C)c(=O)c4c(-c4ccc(Cl)cc4F)n3)CCO2)cn1` (single isomer, unassigned) [Example 65], the Emax result is “++ (Emax>100 and ≤200)”; the EC50 fell in the range of 3 to 100 µM.

Take `Cc1c([C@@H]2CN(c3cc4nc(C)n(C)c(=O)c4c(-c4ccc(Cl)cc4F)n3)CCO2)cnn1C` (single isomer, unassigned) [Example 66]: the Emax entry was “+++ (Emax>200 and ≤300)”; the EC50 was 0.05 to 0.5 µM.

Turning to `Cc1c([C@H]2CN(c3cc4nc(C)n(C)c(=O)c4c(-c4ccc(Cl)cc4F)n3)CCO2)cnn1C` (single isomer, unassigned) [Example 67], the Emax result is “++ (Emax>100 and ≤200)”; the EC50 was in the range of 3 to 100 µM.

In the case of `Cc1nc2cc(N3C[C@H](C)O[C@@H](c4ccsc4)C3)nc(-c3ccc(Cl)cc3F)c2c(=O)n1C` (single isomer, unassigned) [Example 71], the Emax result is on record as “++++ (Emax>300)” and the concentration for a half-maximal effect (EC50) was in the range of 0.05 to 0.5 µM.

Regarding `Cc1nc2cc(N3C[C@@H](c4ccsc4)O[C@@H](C)C3)nc(-c3ccc(Cl)cc3F)c2c(=O)n1C` (single isomer, unassigned) [Example 72], the Emax entry was “++++ (Emax>300)” and the concentration for a half-maximal effect (EC50) was 0.5 to 3 µM.

Turning to `Cc1nc2cc(N3C[C@@H](C)O[C@@H](c4ccsc4)C3)nc(-c3ccc(Cl)cc3F)c2c(=O)n1C` (single isomer, unassigned) [Example 73], the Emax entry is “+++ (Emax>200 and ≤300)”; the EC50 lay within 3 to 100 µM.

As to `Cc1nc2cc(N3C[C@@H](C)O[C@H](c4ccsc4)C3)nc(-c3ccc(Cl)cc3F)c2c(=O)n1C` (single isomer, unassigned) [Example 74], the Emax result is “+ (Emax>45 and ≤100)”; the EC50 fell in the range of 0.5 to 3 µM.

Turning to `Cc1cc([C@@H]2CN(c3cc4nc(C)n(C)c(=O)c4c(-c4ccc(Cl)cc4F)n3)CCO2)cc(C)n1` (single isomer, unassigned) [Example 76], the Emax result is listed as “++++ (Emax>300)” and the EC50 lay within 0.05 to 0.5 µM.

Consider `Cc1cc([C@H]2CN(c3cc4nc(C)n(C)c(=O)c4c(-c4ccc(Cl)cc4F)n3)CCO2)cc(C)n1` (single isomer, unassigned) [Example 77], for which the Emax result is given as “++++ (Emax>300)” and the EC50 was < 0.05 µM.

As to `COc1ccc([C@H]2CN(c3cc4nc(C)n(C)c(=O)c4c(-c4ccc(Cl)cc4F)n3)CCO2)cc1` (single isomer, unassigned) [Example 78], the Emax entry is “++++ (Emax>300)” and the EC50 fell in the range of 0.05 to 0.5 µM.

`COc1ccc([C@@H]2CN(c3cc4nc(C)n(C)c(=O)c4c(-c4ccc(Cl)cc4F)n3)CCO2)cc1` (single isomer, unassigned) [Example 79]: the Emax entry is “+++ (Emax>200 and ≤300)”; the concentration giving a half-maximal response (EC50) was 0.5 to 3 µM.

Turning to `COc1cccc([C@H]2CN(c3cc4nc(C)n(C)c(=O)c4c(-c4ccc(Cl)cc4F)n3)CCO2)c1` (single isomer, unassigned) [Example 80], the Emax entry is listed as “++++ (Emax>300)” and the concentration giving a half-maximal response (EC50) lay in the range of 0.05 to 0.5 µM.

Take `COc1cccc([C@@H]2CN(c3cc4nc(C)n(C)c(=O)c4c(-c4ccc(Cl)cc4F)n3)CCO2)c1` (single isomer, unassigned) [Example 81]: the Emax result was “+++ (Emax>200 and ≤300)”; the EC50 is 3 to 100 µM.

As for `COc1cc([C@H]2CN(c3cc4nc(C)n(C)c(=O)c4c(-c4ccc(Cl)cc4F)n3)CCO2)ccn1` (single isomer, unassigned) [Example 82], the Emax result is “++++ (Emax>300)” and the concentration for a half-maximal effect (EC50) was < 0.05 µM.

On to `COc1cc([C@@H]2CN(c3cc4nc(C)n(C)c(=O)c4c(-c4ccc(Cl)cc4F)n3)CCO2)ccn1` (single isomer, unassigned) [Example 83], for which the Emax entry is listed as “++++ (Emax>300)” and the EC50 lay in the range of 0.05 to 0.5 µM.

As for `Cc1nc2cc(N3CCO[C@@H](c4noc(C5CC5)n4)C3)nc(-c3ccc(Cl)cc3F)c2c(=O)n1C` (single isomer, unassigned) [Example 84], the Emax entry is “++++ (Emax>300)” and the EC50 fell in the range of 0.5 to 3 µM.

Regarding `Cc1nc2cc(N3CCO[C@H](c4noc(C5CC5)n4)C3)nc(-c3ccc(Cl)cc3F)c2c(=O)n1C` (single isomer, unassigned) [Example 85], the Emax result is “++++ (Emax>300)” and the EC50 was 3 to 100 µM.

As to `Cc1nc2cc(N3CCO[C@H](c4ccc(Cl)cc4)C3)nc(-c3ccc(Cl)cc3F)c2c(=O)n1C` (single isomer, unassigned) [Example 86], the Emax entry was “++++ (Emax>300)” and the 50% effective concentration (EC50) lay in the range of 0.5 to 3 µM.

`Cc1nc2cc(N3CCO[C@@H](c4ccc(Cl)cc4)C3)nc(-c3ccc(Cl)cc3F)c2c(=O)n1C` (single isomer, unassigned) [Example 87]: the Emax entry is recorded as “++++ (Emax>300)” and the EC50 is 0.5 to 3 µM.

As for `Cc1nc2cc(N3CCO[C@H](c4ccnc(Cl)c4)C3)nc(-c3ccc(Cl)cc3F)c2c(=O)n1C` (single isomer, unassigned) [Example 88], the Emax entry was “+++ (Emax>200 and ≤300)”; the concentration giving a half-maximal response (EC50) is 0.5 to 3 µM.

As to `Cc1nc2cc(N3CCO[C@@H](c4ccnc(Cl)c4)C3)nc(-c3ccc(Cl)cc3F)c2c(=O)n1C` (single isomer, unassigned) [Example 89], the Emax entry is “++++ (Emax>300)” and the concentration for a half-maximal effect (EC50) is 0.05 to 0.5 µM.

Take `Cc1nc2cc(N3CCO[C@@H](c4cccc(C(F)(F)F)c4)C3)nc(-c3ccc(Cl)cc3F)c2c(=O)n1C` (single isomer, unassigned) [Example 91]: the Emax result is “++ (Emax>100 and ≤200)”; the half-maximal effective concentration (EC50) lay within 0.5 to 3 µM.

Take `Cc1nc2cc(N3CCO[C@H](c4cccc(C(F)(F)F)c4)C3)nc(-c3ccc(Cl)cc3F)c2c(=O)n1C` (single isomer, unassigned) [Example 92]: the Emax result was “++++ (Emax>300)” and the EC50 is 0.05 to 0.5 µM.
